Measurements taken from the kinase profiling compilation of Christmann-Franck et al. (2016).

What was measured:
Test in all cases: KINOMEscan competition binding
Details in all cases: compound 10.0 µM
[1] = system: ABL1 (human), P00519 [E255K]
[2] = target: CDK4 CCND1 (human) (UniProt P11802+P24385)
[3] = target: CDKL3 (human) (UniProt Q8IVW4)
[4] = target: CDKL5 (human) (UniProt O76039)
[5] = system: CPK1 (P.falciparum)
[6] = target: CSNK1A1 (human) (UniProt P48729)
[7] = target: DYRK2 (human) (UniProt Q92630)
[8] = system: EGFR (human), P00533 [G719S]
[9] = system: EGFR (human), P00533 [P753S; 747-752 del]
[10] = target: EPHB6 (human) (UniProt O15197)
[11] = target: ERBB3 (human) (UniProt P21860)
[12] = target: ERN1 (human) (UniProt O75460)
[13] = target: GRK1 (human) (UniProt Q15835)
[14] = target: GRK4 (human) (UniProt P32298)
[15] = target: HIPK4 (human) (UniProt Q8NE63)
[16] = target: HUNK (human) (UniProt P57058)
[17] = target: IRAK4 (human) (UniProt Q9NWZ3)
[18] = system: KIT (human), P10721 [V559D/T670I]
[19] = target: MAK (human) (UniProt P20794)
[20] = target: MAP2K7 (human) (UniProt O14733)
[21] = target: MAP3K13 (human) (UniProt O43283)
[22] = target: MAP3K15 (human) (UniProt Q6ZN16)
[23] = target: MATK (human) (UniProt P42679)
[24] = target: MET (human) (UniProt P08581)
[25] = target: NEK3 (human) (UniProt P51956)
[26] = target: NEK4 (human) (UniProt P51957)
[27] = target: PIP4K2C (human) (UniProt Q8TBX8)
[28] = target: PKN3 (M.tuberculosis) (UniProt Q6P5Z2)
[29] = target: PLK2 (human) (UniProt Q9NYY3)
[30] = target: ROCK1 (human) (UniProt Q13464)
[31] = target: SNRK (human) (UniProt Q9NRH2)
[32] = target: STK32A (human) (UniProt Q8WU08)
[33] = target: TBK1 (human) (UniProt Q9UHD2)
[34] = target: TIE1 (human) (UniProt P35590)
[35] = target: TRPM6 (human) (UniProt Q9BX84)
[36] = target: VRK2 (human) (UniProt Q86Y07)
[37] = target: YSK4 (human) (UniProt Q56UN5)
[38] = system: PIK3CA (human), P42336 [C420R]
[39] = system: PIK3CA (human), P42336 [E545K]
[40] = target: PIK3CG (human) (UniProt P48736)

Chain of HIPK4 (human) (Q8NE63 whole entry, looked up): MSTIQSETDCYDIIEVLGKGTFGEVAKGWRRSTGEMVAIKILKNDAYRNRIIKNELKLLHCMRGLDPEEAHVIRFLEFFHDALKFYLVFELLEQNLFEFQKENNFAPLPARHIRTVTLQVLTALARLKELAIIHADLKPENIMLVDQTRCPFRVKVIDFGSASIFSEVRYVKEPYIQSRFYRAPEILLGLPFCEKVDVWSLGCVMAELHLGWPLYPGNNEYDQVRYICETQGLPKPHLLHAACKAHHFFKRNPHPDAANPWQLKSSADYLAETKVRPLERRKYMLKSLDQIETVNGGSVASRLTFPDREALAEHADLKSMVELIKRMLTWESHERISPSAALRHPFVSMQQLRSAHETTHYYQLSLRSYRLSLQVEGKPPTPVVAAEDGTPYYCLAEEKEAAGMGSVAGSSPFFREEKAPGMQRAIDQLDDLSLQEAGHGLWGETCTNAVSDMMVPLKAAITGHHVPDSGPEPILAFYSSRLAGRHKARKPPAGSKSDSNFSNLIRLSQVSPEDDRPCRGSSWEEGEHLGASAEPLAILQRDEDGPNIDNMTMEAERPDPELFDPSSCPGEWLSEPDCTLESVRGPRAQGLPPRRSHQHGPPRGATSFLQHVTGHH
Chain of MAP3K15 (human) (Q6ZN16 whole entry, looked up): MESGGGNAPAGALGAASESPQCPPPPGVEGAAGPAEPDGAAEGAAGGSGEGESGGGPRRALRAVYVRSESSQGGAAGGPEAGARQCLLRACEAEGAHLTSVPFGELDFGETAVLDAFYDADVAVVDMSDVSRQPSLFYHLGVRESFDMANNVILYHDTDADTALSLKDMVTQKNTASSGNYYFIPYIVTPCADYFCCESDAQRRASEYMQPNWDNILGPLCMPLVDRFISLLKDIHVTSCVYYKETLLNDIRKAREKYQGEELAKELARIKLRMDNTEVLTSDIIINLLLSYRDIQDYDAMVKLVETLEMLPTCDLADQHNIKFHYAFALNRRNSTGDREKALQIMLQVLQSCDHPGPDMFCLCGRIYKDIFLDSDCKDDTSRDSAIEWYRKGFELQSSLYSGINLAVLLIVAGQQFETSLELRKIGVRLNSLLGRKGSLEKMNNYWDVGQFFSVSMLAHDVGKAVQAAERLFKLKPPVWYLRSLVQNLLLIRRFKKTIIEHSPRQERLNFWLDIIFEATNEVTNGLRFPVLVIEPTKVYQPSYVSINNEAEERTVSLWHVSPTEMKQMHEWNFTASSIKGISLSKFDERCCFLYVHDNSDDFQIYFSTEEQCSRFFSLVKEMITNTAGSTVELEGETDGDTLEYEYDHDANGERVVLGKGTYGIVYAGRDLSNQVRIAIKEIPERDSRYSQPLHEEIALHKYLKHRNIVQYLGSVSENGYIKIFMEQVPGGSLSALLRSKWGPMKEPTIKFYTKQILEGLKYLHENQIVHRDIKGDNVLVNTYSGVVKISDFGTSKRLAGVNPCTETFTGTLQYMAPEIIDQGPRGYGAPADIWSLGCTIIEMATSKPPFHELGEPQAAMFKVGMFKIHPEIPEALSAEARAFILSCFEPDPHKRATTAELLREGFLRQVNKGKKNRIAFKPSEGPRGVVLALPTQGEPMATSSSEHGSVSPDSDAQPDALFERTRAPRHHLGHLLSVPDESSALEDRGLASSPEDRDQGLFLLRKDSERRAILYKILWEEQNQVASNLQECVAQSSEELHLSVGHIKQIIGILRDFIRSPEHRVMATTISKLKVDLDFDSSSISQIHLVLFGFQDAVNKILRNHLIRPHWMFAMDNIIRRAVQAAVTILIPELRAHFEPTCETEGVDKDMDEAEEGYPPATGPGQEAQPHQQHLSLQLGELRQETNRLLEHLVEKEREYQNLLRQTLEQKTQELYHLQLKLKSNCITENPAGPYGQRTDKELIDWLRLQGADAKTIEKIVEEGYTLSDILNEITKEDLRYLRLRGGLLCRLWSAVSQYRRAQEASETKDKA
Chain of NEK3 (human) (P51956 whole entry, looked up): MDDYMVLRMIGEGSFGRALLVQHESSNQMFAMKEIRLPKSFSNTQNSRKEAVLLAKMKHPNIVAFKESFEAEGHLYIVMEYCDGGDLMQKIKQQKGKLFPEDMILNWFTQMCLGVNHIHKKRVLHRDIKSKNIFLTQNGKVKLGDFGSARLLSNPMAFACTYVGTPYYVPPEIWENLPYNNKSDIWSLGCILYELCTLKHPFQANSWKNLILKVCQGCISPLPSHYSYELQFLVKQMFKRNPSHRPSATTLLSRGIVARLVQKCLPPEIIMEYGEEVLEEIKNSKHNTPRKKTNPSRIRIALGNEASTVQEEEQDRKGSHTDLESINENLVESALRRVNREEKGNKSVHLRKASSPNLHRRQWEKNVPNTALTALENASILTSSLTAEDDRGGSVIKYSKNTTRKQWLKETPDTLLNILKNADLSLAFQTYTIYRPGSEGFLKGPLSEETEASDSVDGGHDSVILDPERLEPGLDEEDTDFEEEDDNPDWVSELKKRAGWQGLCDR
Chain of MATK (human) (P42679 whole entry, looked up): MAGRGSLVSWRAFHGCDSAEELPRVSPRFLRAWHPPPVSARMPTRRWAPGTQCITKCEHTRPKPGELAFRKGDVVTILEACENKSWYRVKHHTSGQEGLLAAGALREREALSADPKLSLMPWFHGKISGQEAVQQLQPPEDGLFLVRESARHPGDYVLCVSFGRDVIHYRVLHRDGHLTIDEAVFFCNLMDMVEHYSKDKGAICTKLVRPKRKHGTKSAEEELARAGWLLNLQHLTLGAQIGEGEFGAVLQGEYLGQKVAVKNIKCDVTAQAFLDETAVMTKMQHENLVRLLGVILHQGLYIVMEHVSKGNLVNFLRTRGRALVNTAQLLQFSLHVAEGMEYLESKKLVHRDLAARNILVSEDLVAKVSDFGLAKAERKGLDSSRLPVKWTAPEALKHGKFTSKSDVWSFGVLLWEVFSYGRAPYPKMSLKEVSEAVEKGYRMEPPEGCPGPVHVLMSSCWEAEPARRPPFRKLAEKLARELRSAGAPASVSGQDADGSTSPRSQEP
Chain of TBK1 (human) (Q9UHD2 whole entry, looked up): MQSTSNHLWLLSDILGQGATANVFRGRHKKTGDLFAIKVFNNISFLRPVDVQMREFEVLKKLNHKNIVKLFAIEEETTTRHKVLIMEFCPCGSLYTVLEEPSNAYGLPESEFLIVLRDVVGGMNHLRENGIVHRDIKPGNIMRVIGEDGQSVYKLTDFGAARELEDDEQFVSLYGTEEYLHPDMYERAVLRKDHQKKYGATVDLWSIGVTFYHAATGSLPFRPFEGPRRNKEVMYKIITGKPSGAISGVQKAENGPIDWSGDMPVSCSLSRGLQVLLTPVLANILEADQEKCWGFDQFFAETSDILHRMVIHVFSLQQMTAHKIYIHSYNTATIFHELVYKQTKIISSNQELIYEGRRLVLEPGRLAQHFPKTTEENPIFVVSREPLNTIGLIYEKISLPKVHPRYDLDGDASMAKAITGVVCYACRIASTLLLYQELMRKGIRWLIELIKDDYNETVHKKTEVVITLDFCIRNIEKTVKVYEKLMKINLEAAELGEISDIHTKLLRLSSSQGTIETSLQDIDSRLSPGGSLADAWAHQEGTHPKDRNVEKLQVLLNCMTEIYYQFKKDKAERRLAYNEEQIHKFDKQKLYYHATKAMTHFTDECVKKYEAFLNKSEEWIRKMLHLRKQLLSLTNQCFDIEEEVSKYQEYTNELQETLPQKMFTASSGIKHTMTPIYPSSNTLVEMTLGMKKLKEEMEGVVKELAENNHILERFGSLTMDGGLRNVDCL
Chain of CDKL3 (human) (Q8IVW4 whole entry, looked up): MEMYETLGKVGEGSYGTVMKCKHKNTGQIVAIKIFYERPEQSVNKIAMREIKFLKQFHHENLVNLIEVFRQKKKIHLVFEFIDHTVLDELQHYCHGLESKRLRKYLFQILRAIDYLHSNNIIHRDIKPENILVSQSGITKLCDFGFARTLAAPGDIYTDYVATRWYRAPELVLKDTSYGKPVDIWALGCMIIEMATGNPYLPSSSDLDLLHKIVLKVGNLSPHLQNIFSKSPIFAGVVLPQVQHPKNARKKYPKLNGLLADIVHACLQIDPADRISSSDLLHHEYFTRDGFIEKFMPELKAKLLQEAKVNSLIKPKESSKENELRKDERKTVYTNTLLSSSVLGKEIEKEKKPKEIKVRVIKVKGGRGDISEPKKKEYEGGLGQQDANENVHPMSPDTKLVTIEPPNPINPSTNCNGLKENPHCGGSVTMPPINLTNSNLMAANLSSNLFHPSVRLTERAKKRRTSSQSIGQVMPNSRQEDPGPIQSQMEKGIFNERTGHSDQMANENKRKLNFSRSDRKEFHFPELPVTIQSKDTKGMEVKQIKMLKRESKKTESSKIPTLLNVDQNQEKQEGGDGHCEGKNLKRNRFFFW
Chain of VRK2 (human) (Q86Y07 whole entry, looked up): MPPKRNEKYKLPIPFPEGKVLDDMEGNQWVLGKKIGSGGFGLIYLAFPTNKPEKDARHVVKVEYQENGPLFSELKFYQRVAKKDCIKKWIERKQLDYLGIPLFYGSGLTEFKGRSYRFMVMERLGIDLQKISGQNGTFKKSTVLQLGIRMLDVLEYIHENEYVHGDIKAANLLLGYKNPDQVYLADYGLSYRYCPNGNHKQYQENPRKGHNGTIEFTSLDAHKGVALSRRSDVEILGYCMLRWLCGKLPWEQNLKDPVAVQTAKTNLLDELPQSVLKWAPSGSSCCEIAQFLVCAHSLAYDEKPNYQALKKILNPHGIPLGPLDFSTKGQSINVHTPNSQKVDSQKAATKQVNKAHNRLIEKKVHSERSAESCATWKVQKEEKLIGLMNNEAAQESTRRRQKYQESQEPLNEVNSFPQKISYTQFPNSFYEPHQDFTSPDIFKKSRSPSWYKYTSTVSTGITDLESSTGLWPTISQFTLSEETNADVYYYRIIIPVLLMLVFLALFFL

With Cc1cc([C@@H](C)Nc2ccccc2C(=O)O)c2nc(N3CCOCC3)cc(=O)n2c1 the kinase still bound, per cent of control [1] was 94%, the kinase still bound, per cent of control [2] was 100% and the kinase still bound, per cent of control [3] was 90%. It also gave a kinase still bound, per cent of control [4] of 74%, a kinase still bound, per cent of control [5] of 62% and a kinase still bound, per cent of control [6] of 63%. For the same compound, the kinase still bound, per cent of control [7] was 89%, the kinase still bound, per cent of control [8] was 98% and the kinase still bound, per cent of control [9] was 100%. For the same compound, the kinase still bound, per cent of control [10] was 41%, the kinase still bound, per cent of control [11] was 100% and the kinase still bound, per cent of control [12] was 91%. It also gave a kinase still bound, per cent of control [13] of 100%, a kinase still bound, per cent of control [14] of 90% and a kinase still bound, per cent of control [15] of 100%. The kinase still bound, per cent of control [16] was 81%, the kinase still bound, per cent of control [17] was 100% and the kinase still bound, per cent of control [18] was 91%. The kinase still bound, per cent of control [19] was 67%, the kinase still bound, per cent of control [20] was 90% and the kinase still bound, per cent of control [21] was 100%. It also gave a kinase still bound, per cent of control [22] of 87%, a kinase still bound, per cent of control [23] of 96% and a kinase still bound, per cent of control [24] of 86%. The kinase still bound, per cent of control [25] was 100%, the kinase still bound, per cent of control [26] was 61% and the kinase still bound, per cent of control [27] was 58%. It also gave a kinase still bound, per cent of control [28] of 98%, a kinase still bound, per cent of control [29] of 99% and a kinase still bound, per cent of control [30] of 73%. For the same compound, the kinase still bound, per cent of control [31] was 89%, the kinase still bound, per cent of control [32] was 89% and the kinase still bound, per cent of control [33] was 100%. It also gave a kinase still bound, per cent of control [34] of 100%, a kinase still bound, per cent of control [35] of 100% and a kinase still bound, per cent of control [36] of 100%. The kinase still bound, per cent of control [37] was 100%.
Nc1ccc(-c2ccc3ncc4ccc(=O)n(-c5cccc(C(F)(F)F)c5)c4c3c2)cn1 gave a kinase still bound, per cent of control [1] of 76%, a kinase still bound, per cent of control [2] of 100% and a kinase still bound, per cent of control [3] of 100%. For the same compound, the kinase still bound, per cent of control [4] was 100%, the kinase still bound, per cent of control [5] was 52% and the kinase still bound, per cent of control [6] was 94%. For the same compound, the kinase still bound, per cent of control [7] was 88%, the kinase still bound, per cent of control [8] was 88% and the kinase still bound, per cent of control [9] was 98%. It also gave a kinase still bound, per cent of control [10] of 82%, a kinase still bound, per cent of control [11] of 50% and a kinase still bound, per cent of control [12] of 100%. For the same compound, the kinase still bound, per cent of control [13] was 100%, the kinase still bound, per cent of control [14] was 92% and the kinase still bound, per cent of control [15] was 44%. It also gave a kinase still bound, per cent of control [16] of 100%, a kinase still bound, per cent of control [17] of 85% and a kinase still bound, per cent of control [18] of 68%. The kinase still bound, per cent of control [19] was 96%, the kinase still bound, per cent of control [20] was 100% and the kinase still bound, per cent of control [21] was 100%. For the same compound, the kinase still bound, per cent of control [22] was 100%, the kinase still bound, per cent of control [23] was 100% and the kinase still bound, per cent of control [24] was 100%. The kinase still bound, per cent of control [25] was 95%, the kinase still bound, per cent of control [26] was 100% and the kinase still bound, per cent of control [27] was 21%. For the same compound, the kinase still bound, per cent of control [28] was 63%, the kinase still bound, per cent of control [29] was 100% and the kinase still bound, per cent of control [30] was 79%. The kinase still bound, per cent of control [31] was 100%, the kinase still bound, per cent of control [32] was 100% and the kinase still bound, per cent of control [33] was 100%. It also gave a kinase still bound, per cent of control [34] of 100%, a kinase still bound, per cent of control [35] of 71% and a kinase still bound, per cent of control [36] of 100%. For the same compound, the kinase still bound, per cent of control [37] was 37%.
For O=C(NOC[C@H](O)CO)c1ccc(F)c(F)c1Nc1ccc(I)cc1F, the kinase still bound, per cent of control [1] was 100%, the kinase still bound, per cent of control [2] was 93% and the kinase still bound, per cent of control [3] was 98%. It also gave a kinase still bound, per cent of control [4] of 67%, a kinase still bound, per cent of control [5] of 78% and a kinase still bound, per cent of control [6] of 100%. It also gave a kinase still bound, per cent of control [7] of 95%, a kinase still bound, per cent of control [9] of 59% and a kinase still bound, per cent of control [10] of 87%. The kinase still bound, per cent of control [11] was 100%, the kinase still bound, per cent of control [12] was 97% and the kinase still bound, per cent of control [13] was 100%. The kinase still bound, per cent of control [14] was 100%, the kinase still bound, per cent of control [15] was 100% and the kinase still bound, per cent of control [16] was 100%. For the same compound, the kinase still bound, per cent of control [17] was 100%, the kinase still bound, per cent of control [18] was 90% and the kinase still bound, per cent of control [19] was 100%. The kinase still bound, per cent of control [20] was 100%, the kinase still bound, per cent of control [21] was 86% and the kinase still bound, per cent of control [22] was 100%. For the same compound, the kinase still bound, per cent of control [23] was 100%, the kinase still bound, per cent of control [25] was 100% and the kinase still bound, per cent of control [26] was 78%. It also gave a kinase still bound, per cent of control [38] of 50%, a kinase still bound, per cent of control [39] of 53% and a kinase still bound, per cent of control [40] of 88%. The kinase still bound, per cent of control [27] was 100%, the kinase still bound, per cent of control [28] was 91% and the kinase still bound, per cent of control [29] was 100%. For the same compound, the kinase still bound, per cent of control [30] was 100%, the kinase still bound, per cent of control [31] was 100% and the kinase still bound, per cent of control [32] was 80%. The kinase still bound, per cent of control [33] was 85%, the kinase still bound, per cent of control [34] was 54% and the kinase still bound, per cent of control [35] was 100%. For the same compound, the kinase still bound, per cent of control [36] was 100% and the kinase still bound, per cent of control [37] was 100%.
In the case of C[C@@H](Oc1cc(-n2cnc3ccc(CN4CCN(C)CC4)cc32)sc1C(N)=O)c1ccccc1C(F)(F)F, the kinase still bound, per cent of control [1] was 55%, the kinase still bound, per cent of control [2] was 91% and the kinase still bound, per cent of control [3] was 100%. It also gave a kinase still bound, per cent of control [4] of 31%, a kinase still bound, per cent of control [5] of 62% and a kinase still bound, per cent of control [6] of 91%. The kinase still bound, per cent of control [7] was 54%, the kinase still bound, per cent of control [8] was 100% and the kinase still bound, per cent of control [9] was 97%. It also gave a kinase still bound, per cent of control [10] of 59%, a kinase still bound, per cent of control [11] of 100% and a kinase still bound, per cent of control [12] of 34%. The kinase still bound, per cent of control [13] was 50%, the kinase still bound, per cent of control [14] was 16% and the kinase still bound, per cent of control [15] was 36%. For the same compound, the kinase still bound, per cent of control [16] was 78%, the kinase still bound, per cent of control [17] was 43% and the kinase still bound, per cent of control [18] was 37%. It also gave a kinase still bound, per cent of control [19] of 100%, a kinase still bound, per cent of control [20] of 80% and a kinase still bound, per cent of control [21] of 87%. The kinase still bound, per cent of control [22] was 24%, the kinase still bound, per cent of control [23] was 52% and the kinase still bound, per cent of control [24] was 76%. For the same compound, the kinase still bound, per cent of control [25] was 100%, the kinase still bound, per cent of control [26] was 69% and the kinase still bound, per cent of control [38] was 55%. For the same compound, the kinase still bound, per cent of control [39] was 71%, the kinase still bound, per cent of control [40] was 6.4% and the kinase still bound, per cent of control [27] was 62%. For the same compound, the kinase still bound, per cent of control [28] was 27%, the kinase still bound, per cent of control [29] was 2.6% and the kinase still bound, per cent of control [30] was 7.9%. It also gave a kinase still bound, per cent of control [31] of 100%, a kinase still bound, per cent of control [32] of 66% and a kinase still bound, per cent of control [33] of 84%. It also gave a kinase still bound, per cent of control [35] of 100%, a kinase still bound, per cent of control [36] of 100% and a kinase still bound, per cent of control [37] of 12%.
